PubChem BioAssay (NCI)
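The compound was tested at five concentrations on cells cultured in 96-well plates, with a 48-hour exposure period. GI50 marks 50% less growth. At the TGI there is no net growth.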

Tests used:
Assay in all cases: NCI anticancer screen, dose series, 48 h
U251 CNS = system: U251 CNS
COLO 205 colon = system: COLO 205 colon
SN12C renal = system: SN12C renal
OVCAR-3 ovarian = system: OVCAR-3 ovarian
K-562 leukemia = system: K-562 leukemia
SF-295 CNS = system: SF-295 CNS
MCF7 breast = system: MCF7 breast
MDA-MB-231 breast = system: MDA-MB-231 breast
HT29 colon = system: HT29 colon
NCI-H23 lung = system: NCI-H23 lung

SMILES: C=C(C(=O)OC)[C@@H]1CC2OC1C(=O)C(C)CCC/C(C)=C/CC[C@@]2(C)O (some centres undefined)
- GI50 (U251 CNS): 36.7 µM
- TGI (U251 CNS): > 100 µM
- GI50 (COLO 205 colon): 25.1 µM
- TGI (COLO 205 colon): 78.7 µM
- GI50 (SN12C renal): 31.3 µM
- TGI (SN12C renal): 91.5 µM
- GI50 (OVCAR-3 ovarian): 15.9 µM
- TGI (OVCAR-3 ovarian): 48.4 µM
- GI50 (K-562 leukemia): 18.9 µM
- TGI (K-562 leukemia): 43.4 µM
- GI50 (SF-295 CNS): 39.5 µM
- TGI (SF-295 CNS): > 100 µM
- GI50 (MCF7 breast): 43.5 µM
- TGI (MCF7 breast): > 100 µM
- GI50 (MDA-MB-231 breast): 28.3 µM
- TGI (MDA-MB-231 breast): 68 µM
- GI50 (HT29 colon): 36.5 µM
- TGI (HT29 colon): > 100 µM
- GI50 (NCI-H23 lung): 14 µM
- TGI (NCI-H23 lung): 27.9 µM

SMILES: COc1ccc2nc(C)cc(Sc3nc4ccccc4s3)c2c1
- GI50 (U251 CNS): 1 µM
- TGI (U251 CNS): 3.06 µM
- GI50 (COLO 205 colon): 0.816 µM
- TGI (COLO 205 colon): 2.58 µM
- GI50 (SN12C renal): 1.7 µM
- TGI (SN12C renal): 7.06 µM
- GI50 (OVCAR-3 ovarian): 1.47 µM
- TGI (OVCAR-3 ovarian): 3.3 µM
- GI50 (K-562 leukemia): 1.21 µM
- GI50 (SF-295 CNS): 2.48 µM
- TGI (SF-295 CNS): 13.2 µM
- GI50 (MCF7 breast): 1.45 µM
- TGI (MCF7 breast): 11.1 µM
- GI50 (MDA-MB-231 breast): 1.05 µM
- TGI (MDA-MB-231 breast): 5.93 µM
- GI50 (HT29 colon): 1.89 µM
- TGI (HT29 colon): 7.71 µM
- GI50 (NCI-H23 lung): 1.78 µM
- TGI (NCI-H23 lung): 7.56 µM

SMILES: COc1cc(C)cc(C(=O)/C=C/c2ccccc2)c1O
- TGI (U251 CNS): 35.6 µM
- TGI (COLO 205 colon): 38.1 µM
- TGI (SN12C renal): 34 µM
- TGI (OVCAR-3 ovarian): 47.8 µM
- TGI (K-562 leukemia): > 100 µM
- TGI (SF-295 CNS): 39.4 µM
- TGI (MCF7 breast): 49 µM
- TGI (MDA-MB-231 breast): 47.9 µM
- TGI (HT29 colon): 34.7 µM
- TGI (NCI-H23 lung): 32.4 µM

SMILES: N#C/C(=C/N1CCN(C(=O)c2ccco2)C1=S)C(=O)Nc1ccc(Cl)cc1
- GI50 (U251 CNS): 17.3 µM
- TGI (U251 CNS): > 50 µM
- GI50 (COLO 205 colon): 25.6 µM
- TGI (COLO 205 colon): > 50 µM
- GI50 (SN12C renal): 11.8 µM
- TGI (SN12C renal): 37.2 µM
- GI50 (OVCAR-3 ovarian): 15.5 µM
- TGI (OVCAR-3 ovarian): > 50 µM
- GI50 (K-562 leukemia): 16.1 µM
- TGI (K-562 leukemia): > 50 µM
- GI50 (SF-295 CNS): 20.2 µM
- TGI (SF-295 CNS): > 50 µM
- GI50 (MCF7 breast): 21 µM
- TGI (MCF7 breast): > 50 µM
- GI50 (MDA-MB-231 breast): 18.4 µM
- TGI (MDA-MB-231 breast): > 50 µM
- GI50 (HT29 colon): 21.4 µM
- TGI (HT29 colon): > 50 µM
- GI50 (NCI-H23 lung): 12.3 µM
- TGI (NCI-H23 lung): 33.5 µM

SMILES: CC(C)C[C@H](NC(=O)Cn1cccc(CNC(=O)c2ccccc2)c1=O)B(O)O
- GI50 (U251 CNS): 0.517 µM
- TGI (U251 CNS): 19.2 µM
- GI50 (COLO 205 colon): 1.65 µM
- TGI (COLO 205 colon): 97.8 µM
- GI50 (SN12C renal): 0.811 µM
- TGI (SN12C renal): 11.3 µM
- GI50 (OVCAR-3 ovarian): 0.214 µM
- TGI (OVCAR-3 ovarian): 0.674 µM
- GI50 (K-562 leukemia): 1.3 µM
- TGI (K-562 leukemia): > 100 µM
- GI50 (SF-295 CNS): 0.442 µM
- TGI (SF-295 CNS): 2.24 µM
- GI50 (MCF7 breast): 0.409 µM
- TGI (MCF7 breast): > 100 µM
- GI50 (MDA-MB-231 breast): 0.567 µM
- TGI (MDA-MB-231 breast): 3.06 µM
- GI50 (HT29 colon): 0.352 µM
- TGI (HT29 colon): 11.5 µM
- GI50 (NCI-H23 lung): 1.05 µM
- TGI (NCI-H23 lung): > 100 µM

SMILES: Cc1cc(=O)[nH]c(N/N=C/c2ccccc2O)n1
- GI50 (U251 CNS): 6.01 µM
- TGI (U251 CNS): > 100 µM
- GI50 (COLO 205 colon): 3.81 µM
- TGI (COLO 205 colon): > 100 µM
- GI50 (SN12C renal): 18.7 µM
- TGI (SN12C renal): > 100 µM
- GI50 (OVCAR-3 ovarian): 4.15 µM
- TGI (OVCAR-3 ovarian): > 100 µM
- GI50 (K-562 leukemia): 5.82 µM
- TGI (K-562 leukemia): > 100 µM
- GI50 (SF-295 CNS): 3.96 µM
- TGI (SF-295 CNS): > 100 µM
- GI50 (MCF7 breast): 0.463 µM
- TGI (MCF7 breast): > 100 µM
- GI50 (MDA-MB-231 breast): 6.05 µM
- TGI (MDA-MB-231 breast): > 100 µM
- GI50 (HT29 colon): 5.72 µM
- TGI (HT29 colon): > 100 µM
- GI50 (NCI-H23 lung): 4.21 µM
- TGI (NCI-H23 lung): > 100 µM

SMILES: O=C1NC(=O)C(c2cccc(Cl)c2)=C1Nc1ccc(Cl)c(C(=O)O)c1
- GI50 (U251 CNS): > 25 µM
- TGI (U251 CNS): > 25 µM
- GI50 (COLO 205 colon): > 25 µM
- TGI (COLO 205 colon): > 25 µM
- GI50 (SN12C renal): > 25 µM
- TGI (SN12C renal): > 25 µM
- GI50 (OVCAR-3 ovarian): > 25 µM
- TGI (OVCAR-3 ovarian): > 25 µM
- GI50 (K-562 leukemia): > 25 µM
- TGI (K-562 leukemia): > 25 µM
- GI50 (SF-295 CNS): > 25 µM
- TGI (SF-295 CNS): > 25 µM
- GI50 (MCF7 breast): > 25 µM
- TGI (MCF7 breast): > 25 µM
- GI50 (MDA-MB-231 breast): > 25 µM
- TGI (MDA-MB-231 breast): > 25 µM
- GI50 (HT29 colon): > 25 µM
- TGI (HT29 colon): > 25 µM
- GI50 (NCI-H23 lung): > 25 µM
- TGI (NCI-H23 lung): > 25 µM

SMILES: CCCCC#Cc1c(I)n(C2OC(CO[Si](C)(C)C(C)(C)C)C3OC(C)(C)OC32)c(=O)n(C(=O)c2ccccc2)c1=O (centres undefined)
- GI50 (U251 CNS): 3.25 µM
- TGI (U251 CNS): > 100 µM
- GI50 (COLO 205 colon): 1.59 µM
- TGI (COLO 205 colon): 3.14 µM
- GI50 (SN12C renal): 19.3 µM
- TGI (SN12C renal): 45.4 µM
- GI50 (OVCAR-3 ovarian): 1.47 µM
- TGI (OVCAR-3 ovarian): 2.82 µM
- GI50 (K-562 leukemia): 15 µM
- TGI (K-562 leukemia): 36.2 µM
- GI50 (SF-295 CNS): 12.7 µM
- TGI (SF-295 CNS): 27.3 µM
- GI50 (MCF7 breast): 2.14 µM
- TGI (MCF7 breast): 5.59 µM
- GI50 (MDA-MB-231 breast): 17.7 µM
- TGI (MDA-MB-231 breast): 37.7 µM
- GI50 (HT29 colon): 28.4 µM
- TGI (HT29 colon): > 100 µM
- GI50 (NCI-H23 lung): 9.44 µM
- TGI (NCI-H23 lung): 27.3 µM

SMILES: OCCCCC#Cc1ccccc1C#Cc1cccnc1
- GI50 (U251 CNS): 20.3 µM
- TGI (U251 CNS): 78.6 µM
- GI50 (COLO 205 colon): 28.4 µM
- TGI (COLO 205 colon): 94.4 µM
- GI50 (SN12C renal): 26.9 µM
- TGI (SN12C renal): 82.6 µM
- GI50 (OVCAR-3 ovarian): 32.9 µM
- TGI (OVCAR-3 ovarian): > 100 µM
- GI50 (K-562 leukemia): 23.9 µM
- TGI (K-562 leukemia): 71.1 µM
- GI50 (SF-295 CNS): 22.3 µM
- TGI (SF-295 CNS): 60.4 µM
- GI50 (MCF7 breast): 67.5 µM
- TGI (MCF7 breast): > 100 µM
- GI50 (MDA-MB-231 breast): 22.4 µM
- TGI (MDA-MB-231 breast): 69.7 µM
- GI50 (HT29 colon): 22.3 µM
- TGI (HT29 colon): 87.8 µM
- GI50 (NCI-H23 lung): 28 µM
- TGI (NCI-H23 lung): > 100 µM

SMILES: CCN1CCN(c2cc(C(=O)Nc3cccc(Nc4ccc5c(OC)cccc5n4)c3)cc(C(F)(F)F)c2)CC1
- GI50 (U251 CNS): 1.36 µM
- TGI (U251 CNS): 4.94 µM
- GI50 (COLO 205 colon): 0.654 µM
- TGI (COLO 205 colon): 1.49 µM
- GI50 (SN12C renal): 1.4 µM
- TGI (SN12C renal): 5.57 µM
- GI50 (OVCAR-3 ovarian): 3.41 µM
- TGI (OVCAR-3 ovarian): 9.04 µM
- GI50 (K-562 leukemia): 0.91 µM
- TGI (K-562 leukemia): 2.77 µM
- GI50 (SF-295 CNS): 0.803 µM
- TGI (SF-295 CNS): 2.25 µM
- GI50 (MCF7 breast): 0.679 µM
- TGI (MCF7 breast): 2.28 µM
- GI50 (MDA-MB-231 breast): 1.8 µM
- TGI (MDA-MB-231 breast): 6.47 µM
- GI50 (HT29 colon): 0.572 µM
- TGI (HT29 colon): 1.21 µM
- GI50 (NCI-H23 lung): 3.41 µM
- TGI (NCI-H23 lung): 8.12 µM
